Literature values in paper PMC7113672 (Antiviral Research, 2014).

Columns and labels:
[1] = tested on: other cysteine proteases such as the coronaviral main protease, cathepsins B, K, L, and S, and papain
[2] = tested on: influenza A/WSN/1933 (H1N1) virus
SARS-CoV = details: in vivo

For `Sc1ncnc2nc[nH]c12` [6MP, 6-Mercaptopurine], which “inhibition of other cysteine proteases” value [1] is on record?
Its value is “do not inhibit”.

What about the selectivity index [2] of the same compound?
The selectivity index was 4.

And the EC50 ([2]; read-out: EC50, protective effect against influenza A/WSN/1933 (H1N1) virus)?
Its EC50 is 26.5 µM.

For `Nc1nc2nc[nH]c2c(=S)[nH]1` [6TG, 6-Thioguanine], which “inhibition of other cysteine proteases” value [1] is on record?
The value was “do not inhibit”.

With `COc1c(C)c2c(c(O)c1C/C=C(\C)CCC(=O)O)C(=O)OC2` [Mycophenolic acid] as the compound, how does the “efficacy against SARS-CoV” value (SARS-CoV) read?
The value was “ineffective”.

And the “effect of combination on replication of MERS-CoV” value (MERS-CoV)?
Its value is “synergistically inhibit”.

And the EC50 (MERS-CoV; read-out: EC50, inhibition of MERS-CoV replication)?
Its EC50 is 0.27 µM.
